# Measured values from patent US12371748B2, “Genetic markers for predicting responsiveness to therapy with HDL-raising or HDL mimicking agent” (Hoffmann-La Roche Inc., priority 2014, dated 2025).
# Test system: patients recently hospitalized for an Acute Coronary Syndrome (ACS)
# Test: dal-OUTCOMES pharmacogenomic study: cardiovascular events by ADCY9 genotype (Cox proportional hazards)
# Assay type: in vivo, human
# Parameters: key to Responsiveness to treatment: NR = non-responsive; PR = partially responsive; R = responsive
# Conditions: for Hazard ratio (dal vs placebo): time to events; for HR, dal-OUTCOMES: per copy of minor allele
# Description: Dal-OUTCOMES trial (NC20971) was a double blind, randomized, placebo-controlled, parallel group, multi-center, phase III study to assess the safety and efficacy of the CETP inhibitor dalcetrapib in patients recently hospitalized for an Acute Coronary Syndrome (ACS). At time of the interim analysis the study included 15871 randomized patients, distributed over two treatment arms: placebo (7933 patients) and dalcetrapib (600 mg daily; 7938 patients). […] The dal-OUTCOMES study details can be found in G. Schwartz et al., N. Engl. J. Med. 367; 22, 2012.
# dal-Outcomes patients were recruited 4 to 12 weeks following hospitalization for acute coronary syndrome characterized by elevated cardiac biomarkers, with symptoms of acute myocardial ischemia, ischemic electrocardiographic abnormalities that were new or presumed to be new, or loss of viable myocardium on imaging. Patients without elevated cardiac biomarkers were eligible to participate if symptoms of acute myocardial ischemia were accompanied by electrocardiographic changes that were new or presumed to be new and by additional evidence of obstructive coronary disease. (Schwartz G G et al. Am Heart J 2009; 158:896-901 e3).
# All patients were following individualized programs to target LDL cholesterol levels of 100 mg per deciliter (2.6 mmol per liter) or lower by statin if tolerated and diet. No specific statin agent was specified, and patients were not excluded based on LDL cholesterol values. Patients with serum triglyceride levels of 400 mg per deciliter (4.5 mmol per liter) or higher were excluded. (Schwartz G G et al. N Engl J Med 2012; 367:2089-99) Eligible participants to the dal-Outcomes trial entered a single-blind placebo run-in period of approximately 4 to 6 weeks to allow for patients to stabilise and for completion of planned revascularisation procedures. At the end of the run-in period, eligible patients in stable condition were randomised in a 1:1 ratio to 600 mg of dalcetrapib or placebo on top of evidence-based medical care for acute coronary syndrome. Cardiovascular events were adjudicated by an independent clinical endpoint committee. For the pharmacogenomics study, 6338 patients were recruited from April 2008 through July 2010 at 461 sites in 14 countries and provided written informed consent to participate to the genetic study of the dal-OUTCOMES trial. DNA was extracted from whole blood. Following genomic data cleanup, samples from 5749 Caucasian patients were used for the discovery genome-wide association study (GWAS).
# The Illumina Infinium HumanOmni2.5Exome-8v1_A BeadChip including 2,567,845 genetic variants (Illumina, San Diego, California) was used for the discovery GWAS of 5749 Caucasian participants to the dal-OUTCOMES study. The chromosome 16 region including 5 genes upstream and downstream of the adenylate cyclase type 9 (ADCY9) gene (CHR16: 3,400,000-4,600,000) was imputed using IMPUTE2, providing 17,764 variants for analysis with an average completion rate of 99.76%. A Sequenom panel was used for the confirmation of imputed single nucleotide polymorphisms (SNPs) in the ADCY9 gene identified in dal-OUTCOMES and were tested in the dal-PLAQUE-2 study, including 20 SNPs with P values<0.05 from the discovery GWAS.
# Genome-wide association study (GWAS)—Genome-wide genotyping was performed using 200 ng of genomic DNA in GLP-environment at the Beaulieu-Saucier Pharmacogenomics Centre (Montreal, Canada). The Illumina Infinium HumanOmni2.5Exome-8v1_A BeadChip (Illumina, San Diego, CA) including 2,567,845 genomic markers was used and processed according to the manufacturer's specifications. This chip includes over 200,000 exome variants identified through the Exome Chip Consortium. The remaining BeadChip content is a mix of rare and common SNPs from the 1000 Genome Project designed to be maximally informative for diverse world populations. Each BeadChip was scanned and analyzed using the Illumina iScan Reader. […]
compound,measurement,setting,value
"CCC(CC)CC1(C(=O)Nc2ccccc2SC(=O)C(C)C)CCCCC1 [dalcetrapib, thioisobutyric acid S-(2-{[1-(2-ethyl-butyl)-cyclohexanecarbonyl]-amino}-phenyl) ester]",Responsiveness to treatment,rs8061182 CC,NR
same,Hazard ratio (dal vs placebo),rs8061182 CC,1.52
same,Responsiveness to treatment,rs8061182 CT,PR
same,Hazard ratio (dal vs placebo),rs8061182 CT,0.99
same,Responsiveness to treatment,rs8061182 TT,R
same,Hazard ratio (dal vs placebo),rs8061182 TT,0.815
same,"HR, dal-OUTCOMES","rs11647778, Cox additive genetic model",0.678
same,Responsiveness to treatment,rs11647778 CC,R
same,Hazard ratio (dal vs placebo),rs11647778 CC,0.691
same,Responsiveness to treatment,rs11647778 CG,PR
same,Hazard ratio (dal vs placebo),rs11647778 CG,0.966
same,Responsiveness to treatment,rs11647778 GG,NR
same,Hazard ratio (dal vs placebo),rs11647778 GG,1.300
same,"HR, dal-OUTCOMES","rs11647828, Cox additive genetic model",0.696
same,Responsiveness to treatment,rs11647828 CC,R
same,Hazard ratio (dal vs placebo),rs11647828 CC,0.647
same,Responsiveness to treatment,rs11647828 CT,PR
same,Hazard ratio (dal vs placebo),rs11647828 CT,0.963
same,Responsiveness to treatment,rs11647828 TT,NR
same,Hazard ratio (dal vs placebo),rs11647828 TT,1.315
same,"HR, dal-OUTCOMES","rs12595857, Cox additive genetic model",0.677
same,Responsiveness to treatment,rs12595857 AA,NR
same,Hazard ratio (dal vs placebo),rs12595857 AA,1.255
same,Responsiveness to treatment,rs12595857 AG,PR
same,Hazard ratio (dal vs placebo),rs12595857 AG,0.954
same,Responsiveness to treatment,rs12595857 GG,R
same,Hazard ratio (dal vs placebo),rs12595857 GG,0.719
same,"HR, dal-OUTCOMES","rs12599911, Cox additive genetic model",0.674
same,Responsiveness to treatment,rs12599911 GG,R
same,Hazard ratio (dal vs placebo),rs12599911 GG,0.672
same,Responsiveness to treatment,rs12599911 GT,PR
same,Hazard ratio (dal vs placebo),rs12599911 GT,0.982
same,Responsiveness to treatment,rs12599911 TT,NR
same,Hazard ratio (dal vs placebo),rs12599911 TT,1.244
same,"HR, dal-OUTCOMES","rs12920508, Cox additive genetic model",0.669
same,Responsiveness to treatment,rs12920508 CC,NR
same,Hazard ratio (dal vs placebo),rs12920508 CC,1.205
same,Responsiveness to treatment,rs12920508 CG,PR
same,Hazard ratio (dal vs placebo),rs12920508 CG,0.946
same,Responsiveness to treatment,rs12920508 GG,R
same,Hazard ratio (dal vs placebo),rs12920508 GG,0.676
same,"HR, dal-OUTCOMES","rs12935810, Cox additive genetic model",1.377
same,Responsiveness to treatment,rs12935810 AA,NR
same,Hazard ratio (dal vs placebo),rs12935810 AA,1.260
same,Responsiveness to treatment,rs12935810 AG,NR
same,Hazard ratio (dal vs placebo),rs12935810 AG,1.043
same,Responsiveness to treatment,rs12935810 GG,R
same,Hazard ratio (dal vs placebo),rs12935810 GG,0.796
same,"HR, dal-OUTCOMES","rs13337675, Cox additive genetic model",0.834
same,Responsiveness to treatment,rs13337675 AA,NR
same,Hazard ratio (dal vs placebo),rs13337675 AA,1.070
same,Responsiveness to treatment,rs13337675 AG,PR
same,Hazard ratio (dal vs placebo),rs13337675 AG,0.904
same,Responsiveness to treatment,rs13337675 GG,PR
same,Hazard ratio (dal vs placebo),rs13337675 GG,1.034
same,"HR, dal-OUTCOMES","rs17136707, Cox additive genetic model",0.594
same,Responsiveness to treatment,rs17136707 CC,R
same,Hazard ratio (dal vs placebo),rs17136707 CC,0.552
same,Responsiveness to treatment,rs17136707 CT,PR
same,Hazard ratio (dal vs placebo),rs17136707 CT,0.835
same,Responsiveness to treatment,rs17136707 TT,NR
same,Hazard ratio (dal vs placebo),rs17136707 TT,1.058
same,"HR, dal-OUTCOMES","rs74702385, Cox additive genetic model",0.599
same,Responsiveness to treatment,rs74702385 CC,NR
same,Hazard ratio (dal vs placebo),rs74702385 CC,1.053
same,Responsiveness to treatment,rs74702385 CT,R
same,Hazard ratio (dal vs placebo),rs74702385 CT,0.854
same,Responsiveness to treatment,rs74702385 TT,R
same,Hazard ratio (dal vs placebo),rs74702385 TT,0.348
same,"HR, dal-OUTCOMES","rs111590482, Cox additive genetic model",0.606
same,Responsiveness to treatment,rs111590482 CC,R
same,Hazard ratio (dal vs placebo),rs111590482 CC,0.333
same,Responsiveness to treatment,rs111590482 CT,R
same,Hazard ratio (dal vs placebo),rs111590482 CT,0.856
same,Responsiveness to treatment,rs111590482 TT,NR
same,Hazard ratio (dal vs placebo),rs111590482 TT,1.054
same,"event rate in the primary efficacy endpoint, dalcetrapib arm compared to placebo arm","whole study population, 600 mg daily, interim analysis",no evidence of reduction of the event rate
same,"HR for cardiovascular events, AA compared to reference GG homozygotes at rs1967309",within dalcetrapib arm,0.40
same,"HR for cardiovascular events, AG compared to reference GG homozygotes at rs1967309",within dalcetrapib arm,0.68
